According to publication PMC4469915 (Molecules and Cells, 2015):

Assays:
apoA-I = apoA-I (Homo sapiens, UniProt P02647); experiment: DMPC multilamellar liposome clearance, absorbance at […] nm; type: binding; conditions: lipid-free protein; liposomes; protein:DMPC 2:1 mol/mol as printed; 24.5°C
apoA4 = target: T1, apoA4 (Homo sapiens, UniProt P06727); experiment: as above; type: binding; conditions: lipid-free protein; liposomes; protein:DMPC 2:1 mol/mol as printed; 24.5°C
T1 sequence (P06727 21-396): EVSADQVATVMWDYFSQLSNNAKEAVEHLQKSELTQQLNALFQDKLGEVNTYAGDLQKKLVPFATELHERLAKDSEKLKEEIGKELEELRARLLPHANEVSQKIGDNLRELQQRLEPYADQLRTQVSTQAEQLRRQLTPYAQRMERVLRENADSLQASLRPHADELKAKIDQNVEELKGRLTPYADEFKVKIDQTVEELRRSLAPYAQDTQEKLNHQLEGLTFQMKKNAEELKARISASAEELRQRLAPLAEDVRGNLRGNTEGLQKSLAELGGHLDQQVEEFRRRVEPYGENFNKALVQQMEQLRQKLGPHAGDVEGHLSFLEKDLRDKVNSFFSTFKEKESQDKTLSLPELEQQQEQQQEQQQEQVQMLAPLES

Sequence of apoA-I (P02647 25-267): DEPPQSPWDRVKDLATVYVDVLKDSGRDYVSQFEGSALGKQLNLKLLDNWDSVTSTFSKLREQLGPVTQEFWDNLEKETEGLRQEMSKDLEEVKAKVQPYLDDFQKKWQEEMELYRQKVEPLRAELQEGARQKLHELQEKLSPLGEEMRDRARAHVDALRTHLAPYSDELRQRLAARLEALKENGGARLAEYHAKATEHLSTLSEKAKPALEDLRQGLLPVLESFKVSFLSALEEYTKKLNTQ

## CCCCCCCCCCCCCC(=O)OC[C@H](COP(=O)([O-])OCC[N+](C)(C)C)OC(=O)CCCCCCCCCCCCC [DMPC]
apoA-I
  T1/2: 11 ± 1 min
apoA4
  T1/2: 62 ± 10 min
